Experimental data as given in ChEMBL document CHEMBL2094269, “WEHI/Eskitis Trypanosoma b. brucei screening data”.
pIC50: −log10 of the molar value.

Assays:
[1] = DNDI: Cytotoxicity against human MRC-5 lung fibroblast cells.; conditions: IC50
[2] = system: Trypanosoma brucei brucei; assay: microbe, parasite or virus in culture; type: functional, organism-based, STIB 795
Description: DNDI: Inhibition of Human African Trypanosomiasis (HAT), STIB 795, in vitro

| Structure (SMILES) | pIC50 ([2]; Trypanosoma brucei, STIB 795) | pIC50 [2] | pIC50 [1] |
| --- | --- | --- | --- |
| COC(=O)C(NC(=O)c1c(Cl)sc2nnsc12)C(C)C (stereo unspecified) | 5.39 | – | < 5.38 |
| O=C1c2cccc3cccc(c23)C(=O)N1CCNCCO | 5.35 | – | < 5.38 |
| COc1ccc(O)c(/C=N/Nc2ccccn2)c1 | 5.33 | – | < 4.68 |
| O=C(c1ccc(F)cc1)C(CSc1ccc(F)cc1)n1cncn1 (stereo unspecified) | 5.31 | – | < 4.38 |
| O=C(Nc1c2ccccc2nc2ccccc12)c1ccccc1F | 5.27 | – | < 5.38 |
| O=C(NC(c1ccccc1F)c1ccc2cccnc2c1O)c1ccccc1 (stereo unspecified) | 5.21 | – | < 5.38 |
| COc1ccc(C/C(N)=N/OC(=O)c2cccs2)cc1OC | 5.32 | – | < 4.38 |
| CN1CCC(=NNC(=O)c2cc(-c3ccc(Cl)cc3)nc3ccccc23)CC1 | 5.26 | – | < 4.38 |
| COc1ccc2c(c1)C(=NN=C(N)N)c1cc(OC)ccc1-2 | 5.37 | – | < 4.38 |
| C[n+]1ccc(/C=C/c2c[nH]c3ccc(Br)cc23)cc1 | 5.28 | – | < 5.38 |
| N=C(N)n1nc(-c2ccccc2)cc1-c1ccccc1O | 5.29 | – | < 4.68 |
| C=CCN(CC=C)Cc1c(O)ccc2c(=O)c(-c3ccccc3Cl)coc12 | 5.28 | 5.28 | < 4.38 |
| Cc1ccc(Nc2cc(C)nc3c(C)c(C)cc(N)c23)c(C)c1 | 5.29 | – | < 4.38 |
| CCN(CC)c1ccc(C(Nc2ccccn2)c2ccc3cccnc3c2O)cc1 (stereo unspecified) | 5.06 | – | < 4.68 |
| O=c1ccccc2c(/C=C/c3cccc(Cl)c3Cl)nn(-c3ccccc3)c12 | 5.27 | – | < 4.98 |
| NCC(O)(c1ccc(Cl)cc1)c1ccc(Cl)cc1 | 5.27 | 5.27 | < 4.68 |
| Cc1cccc(NC(=O)Cn2cc(CO)c3ccccc32)c1 | 5.27 | – | < 5.38 |
| Fc1ccc(C(CCCN2CCN3CCCCC3C2)c2ccc(F)cc2)cc1 (stereo unspecified) | 5.27 | – | < 4.38 |
| CCOC(=O)c1ccc(NC(=O)C2CCCN(C(=O)c3ccccc3F)C2)cc1 (stereo unspecified) | 4.25 | – | < 4.68 |
| CCc1cc(C2CCCN2C(=O)c2c(F)cccc2Cl)on1 (stereo unspecified) | 5.29 | – | < 4.38 |

| Structure (SMILES) | pIC50 ([2]; Trypanosoma brucei, STIB 795) | pIC50 [2] | pIC50 [1] |
| --- | --- | --- | --- |
| Cc1cc(C)n(-c2ccc3c(Cl)cc(Cl)c(O)c3n2)n1 | 5.32 | – | < 4.38 |
| CCC1=C(C)c2cc3nc(C(=O)OCc4ccccc4)c(C)c-3c(C)n2C1C (stereo unspecified) | 5.25 | – | < 4.38 |
| CCCCn1c(=N)n(CC(O)c2ccc(Br)cc2)c2ccccc21 (stereo unspecified) | 5.28 | 5.27 | < 4.68 |
| Cc1nnc(-c2cc(S(=O)(=O)NCc3ccc4c(c3)OCO4)c[nH]2)o1 | 5.27 | – | < 4.38 |
| O=S(=O)(Nc1ccc(O)c(-c2c(O)ccc3ccccc23)c1)c1cccs1 | 5.30 | – | < 4.38 |
| NC1c2ccccc2CC1Cc1ccc(Cl)cc1Cl (stereo unspecified) | 5.28 | – | < 4.68 |
| CCOc1cc2c(cc1OCC)C(/C(Cl)=C/c1ccccc1)NCC2 (stereo unspecified) | 5.30 | – | < 4.38 |
| COc1ccccc1C(=O)Nc1ccccc1Sc1cc(C)nc2ncnn12 | 5.40 | – | < 4.38 |
| CCOC(=O)N1CCN(C2=C(NC(C)=O)C(=O)c3ccccc3C2=O)CC1 | 5.27 | – | < 4.38 |
| N=c1n(CCc2ccccc2)c2ccccc2n1Cc1ccccc1F | 5.26 | – | < 4.68 |
| O=C1Nc2ccc(OC(F)(F)F)cc2C1=O | 5.33 | – | < 4.38 |
| CCCC[n+]1cc(-c2ccccc2)nc(N2CCCCC2)n1 | 5.12 | – | < 4.38 |
| c1ccc2c(OCCCCCCNCC3CCCO3)cccc2c1 (stereo unspecified) | 5.28 | – | < 4.38 |
| COc1ccccc1C(NC(=O)c1ccccc1)c1ccc2cccnc2c1O (stereo unspecified) | 5.25 | – | < 4.98 |
| COc1ccccc1NC(=O)c1cc(Cl)nnc1Cl | 5.26 | – | < 4.68 |
| Nc1nonc1C(=O)N/N=C/c1c(O)ccc2ccccc12 | 5.27 | – | < 5.38 |
| CCCCC1=NN(C(=O)c2ccccn2)C(O)(C(F)(F)F)C1 (stereo unspecified) | 5.27 | – | < 4.68 |
| O=C(N/N=C/c1c(O)ccc2ccccc12)c1cc(Br)ccc1O | 5.42 | – | < 5.38 |
| CN(C)CCCOC1=Cc2ccccc2Cc2ccccc21 | 5.18 | – | < 4.38 |
| O=C1c2ccccc2C(=O)c2c1ccc1c(=O)o[nH]c21 | 5.33 | – | < 4.38 |

| Structure (SMILES) | pIC50 ([2]; Trypanosoma brucei, STIB 795) | pIC50 [2] | pIC50 [1] |
| --- | --- | --- | --- |
| O=C(CN1C(=O)S/C(=C/c2ccccc2Cl)C1=O)N1CCOCC1 | 5.30 | – | < 4.38 |
| CN1CCc2nc3sc(C(=O)c4ccc(F)cc4)c(N)c3cc2C1 | 5.20 | – | < 4.38 |
| CN1CCN(Cc2cn(-c3ccc(Cl)cc3)c3ccc(F)cc23)CC1 | 5.28 | – | < 4.38 |
| N=C(N)N/N=C1/C(=O)Nc2ccc(Br)cc21 | – | – | < 4.38 |
| C/C(=N\Nc1nnc2c(n1)[nH]c1c(C)cccc12)c1ccccc1O | < 4.98 | – | – |
| COCCN1CSC(=S)N(Cc2ccc(OC)cc2)C1 | < 4.98 | – | – |
| Cc1c(C)n(CC(O)CNCc2ccccc2)c2ccccc12 (stereo unspecified) | 5.26 | 5.12 | – |
| Cc1ccc(O)c(C(=O)CC(=O)c2ccccc2C)c1 | < 4.98 | – | – |
| O=C(Nc1ccccc1C(=O)N/N=C/c1ccccn1)c1ccc(Cl)cc1 | < 4.98 | – | – |
| OC(COCc1ccc(Cl)cc1)CN1CCC(Cc2ccccc2)CC1 (stereo unspecified) | < 4.98 | – | – |
| CCC(C)(C)c1ccc(OCC(O)CNCc2ccccc2)c(C(C)(C)CC)c1 (stereo unspecified) | < 4.98 | – | – |
| CCN1c2ccccc2NC2=C(C(=O)CC(C)(C)C2)C1c1ccc(OC)cc1 (stereo unspecified) | < 4.98 | – | – |
| CCCc1ccc(C(OCCN(C)C)c2ccc(CCC)cc2)cc1 | < 4.98 | – | – |
| Cc1cccc(C(=O)N2CCN(c3cc(N4CCOCC4)nc(C)n3)CC2)c1 | < 4.98 | – | – |
| CNC(=O)c1c[nH]c2ccc(S(=O)(=O)Nc3ccccc3C)cc2c1=O | < 4.98 | – | – |
| CCOC(=O)Cc1ccc(NCc2ccc(F)cc2)cc1 | < 4.98 | – | – |
| O=C(O)c1ccccc1N/N=C(/c1ccccc1)c1ccc(Br)cc1 | < 4.98 | – | – |
| CC(C)N1C/C(=C/c2ccsc2)C(=O)/C(=C/c2ccsc2)C1 | < 4.98 | – | – |

The next lines start with results.

| pIC50 ([2]; Trypanosoma brucei, STIB 795) | pIC50 [2] | Structure (SMILES) | pIC50 [1] |
| --- | --- | --- | --- |
| 6.09 | – | CCc1cc(OCCCCCN2CCNCC2)ccc1Cl | < 4.68 |
| 5.48 | – | Cc1ccnc(NC(c2ccc3cccnc3c2O)c2sccc2C)c1 (stereo unspecified) | < 4.68 |
| 5.49 | – | Oc1c(C(Nc2ccccn2)c2ccc(C(F)(F)F)cc2)ccc2cccnc12 (stereo unspecified) | < 4.38 |
| 6.19 | – | CS(=O)(=O)/C=C(\c1ccccc1)c1ccncc1 | < 4.68 |
| 5.45 | – | NC(=NOC(=O)c1cccc2ccccc12)c1ccccn1 | < 4.68 |
| 6.62 | – | NCCNCCOC(c1ccc(Cl)cc1)c1ccc(Cl)cc1 | 5.25 |
| 5.48 | – | Cc1ccc(Cn2cc(CCC(=O)NCCN3CCCC3)c3ccccc32)cc1 | < 4.68 |
| 6.36 | – | CN(C)CCCC1(O)c2ccccc2C2(CC2)c2ccccc21 | < 4.98 |
| 6.07 | – | O=C(Nc1cccc(Cl)c1)O/N=C1\CC2CCC1C2 (stereo unspecified) | < 4.68 |
| 5.74 | – | CN(C)CCCNc1c2c(nc3ccccc13)CCC2 | 5.24 |
| 5.43 | 5.68 | Cn1cnn(C2CC(=O)C3OCC2O3)c1=S (stereo unspecified) | < 4.68 |
| 5.42 | – | O=C(NO)c1sc2ccccc2c1Cl | < 4.38 |
| 6.04 | – | Cc1ccc([S@+]([O-])/C(F)=C\c2ccccn2)cc1 | 5.25 |
| 5.54 | – | CC(C)COc1ccc2c(c1)c1c3n2CNCC3CCC1 (stereo unspecified) | < 4.68 |
| 5.98 | – | Clc1cc2c(c3ncccc13)OCN(CCC1=CCCCC1)C2 | < 4.68 |
| 5.72 | – | CCN(CC)c1ccc(/C=N/n2cnnc2)c(O)c1 | < 4.38 |
| 6.44 | – | CN1C/C(=C/c2ccc(C#N)cc2)C(=O)/C(=C/c2ccc(C#N)cc2)C1 | < 4.68 |
| 6.00 | – | O=C1CN(Cc2ccccc2)c2ccccc2N1 | 5.08 |
| 6.16 | – | Cc1nn2c3c(nnc2c1-c1ccccc1)C(=O)CCC3 | 4.74 |
| 6.77 | – | O=C(Nc1ccc(Cl)c(-c2nc3ncccc3o2)c1)c1ccco1 | < 4.38 |

| pIC50 ([2]; Trypanosoma brucei, STIB 795) | pIC50 [2] | Structure (SMILES) | pIC50 [1] |
| --- | --- | --- | --- |
| 6.61 | – | Cc1cc(C)nc(C(=N)Nc2nc(-c3ccccn3)cc3ccccc23)n1 | 6.67 |
| 5.71 | – | c1ccc(COc2ccc(-c3cc(C4CCNCC4)[nH]n3)cc2)cc1 | < 4.98 |
| 6.11 | – | COc1ccc(/C(N)=N/OC(=O)C23CC4CC(CC(C4)C2)C3)cc1OC | < 4.38 |
| ≥ 5.47 | – | CC(C)(C)C1CCc2nc(N)nc(N)c2C1 (stereo unspecified) | < 5.38 |
| 5.91 | – | CCc1ccc(NS(=O)(=O)c2cc(-c3cc(C)n[nH]3)ccc2C)cc1 | < 5.38 |
| 5.61 | – | NC1=C(Cl)C(=O)c2ccccc2C1=O | < 4.38 |
| ≥ 7.37 | – | O=C(NCCc1csc(-c2cccc(F)c2)n1)c1cccs1 | < 4.38 |
| 5.50 | – | CCOC(=O)N/N=C\c1ccc(-c2cccc(C(F)(F)F)c2)o1 | < 4.38 |
| 5.79 | – | CC1CCN(Cc2cc(Br)c(O)c3ncccc23)CC1 | 5.27 |
| 5.66 | – | Cc1ccc2c(c1)OCC(CC(=O)NCCN(C)C)N2Cc1ccc(F)cc1 (stereo unspecified) | < 5.38 |
| 6.54 | – | C/N=c1\nnc(Nc2ccccc2O)c(N)o1 | 5.33 |
| 5.60 | – | NCC12CC3CC(C1)CC(c1ccc(Cl)c(Cl)c1)(C3)C2 | < 4.38 |
| 6.11 | – | Cc1ccc(C(=O)O/N=C(\N)Cc2cccs2)c(Cl)c1 | < 4.38 |
| 6.28 | – | COC(=O)C1=C(OC)C(=O)OC12C=CC(=O)C=C2 | 5.97 |
| 5.61 | – | COC12C=CC(CC1)C1C(=O)c3cccc(O)c3C(=O)C12 (stereo unspecified) | < 4.68 |
| 6.01 | – | Nc1ccc2c(c1)C(=O)C(=O)c1cc(N)ccc1-2 | < 4.68 |
| 6.27 | – | CC(C)(C)OC(=O)N1CCC[C@H]1c1nnc(SCc2cccc(Cl)c2)o1 | 5.54 |
| 5.53 | – | Cc1cc(C)c2nc(C)cc(Nc3ccc(O)cc3)c2c1 | < 4.68 |
| 6.88 | – | CN(C)c1ccc(/C=C/c2cc(-c3ccccc3)o[n+]2C)cc1 | < 5.68 |
| 6.30 | – | CS(=O)(=O)c1cccc(C(=O)Nc2nc(-c3ccccn3)cs2)c1 | < 4.98 |
